Experimental data reported in the NIST ThermoML archive (doi:10.1016/j.jct.2016.01.028).
± gives the expanded uncertainty stated by the source.

Test: xn = mol fraction of the nth substance listed
Details: 102 kPa, Liquid; for speed of sound: Frequency=5 MHz, Single path-length method; for mass density: Vibrating tube method

CCCC(=O)[O-].C[NH2+]CCO [N-methyl-2-hydroxyethylammonium butanoate] + O
Details	mass density, 298.15 K [kg/m3]	mass density, 303.15 K [kg/m3]	mass density, 308.15 K [kg/m3]	mass density, 313.15 K [kg/m3]	speed of sound, 298.15 K [m/s]	speed of sound, 303.15 K [m/s]	speed of sound, 308.15 K [m/s]	speed of sound, 313.15 K [m/s]
x1 = 0.0199	1016.9 ± 4	1013.1 ± 4	1009.2 ± 4	1005.3 ± 4	1645.6 ± 14	1646.1 ± 14	1646.7 ± 14	1647.3 ± 14
x1 = 0.0497	1035 ± 4	1032.4 ± 4	1029.8 ± 4	1027.2 ± 4	1762.6 ± 14	1755.1 ± 14	1747.6 ± 14	1740 ± 14
x1 = 0.1005	1040.8 ± 4	1037.9 ± 4	1035 ± 4	1032 ± 4	1773.4 ± 14	1763.6 ± 14	1753.8 ± 14	1744 ± 14
x1 = 0.196	1050.5 ± 4	1047.4 ± 4	1044.4 ± 4	1041.3 ± 4	1739.5 ± 14	1725.4 ± 14	1711.3 ± 14	1697.2 ± 14
x1 = 0.3008	1052.5 ± 4	1049.4 ± 4	1046.3 ± 4	1043.2 ± 4	1732 ± 14	1717 ± 14	1701.9 ± 14	1686.8 ± 14
x1 = 0.4005	1049.1 ± 4	1046 ± 4	1042.8 ± 4	1039.6 ± 4	1693.9 ± 14	1678.1 ± 14	1662.3 ± 14	1646.5 ± 14
x1 = 0.509	1046.8 ± 4	1043.6 ± 4	1040.4 ± 4	1037.2 ± 4	1674.1 ± 14	1658.3 ± 14	1642.4 ± 14	1626.6 ± 14
x1 = 0.5968	1045 ± 4	1041.7 ± 4	1038.5 ± 4	1035.3 ± 4	1659.6 ± 14	1643.9 ± 14	1628.1 ± 14	1612.4 ± 14
x1 = 0.8069	1041.3 ± 4	1038 ± 4	1034.7 ± 4	1031.4 ± 4	1630.4 ± 14	1614.5 ± 14	1598.6 ± 14	1582.7 ± 14
x1 = 1	1035.3 ± 4	1031.9 ± 4	1028.6 ± 4	1025.2 ± 4	1562.9 ± 14	1548 ± 14	1529.7 ± 14	1511.9 ± 14
